Results reported in patent US7884129B2, “Composition comprising the alcohol compound isolated from the extract of cucurbitaceae family plant having anti-adipogenic and anti-obesity activity” (Helixir Co., Ltd., priority 2003, dated 2011).

How the values were obtained:
Preadipocytes (3T3-L1) = assay: Inhibition of adipocyte differentiation and triglyceride level (Oil Red O staining); format: cell-based
Experimental: To determine the inhibiting activity of the compound prepared by Examples 1, i.e., dehydrodiconiferylalcohol (DHCA), on the adipocytes differentiation and triglyceride level, following experiment was performed.
Preadipocytes (3T3-L1) purchased from ATCC (American […], USA) were cultured in RPMI medium containing 10% FBS and MDI cocktail (isobutylmethylxanthine, dexamethasone, insulin) was added thereto for differentiating into mature adipocytes. After two days, the medium was replaced and treated with only insulin. Thereafter, the medium was replaced and equal concentration of insulin was treated again every other day. DHCA ranging from 10 to 1000 ug/ml of the concentrations was treated when the adipocyte differentiation was induced and equal concentration of the DHCA was treated at every replacement of the medium. Troglitazone (Sigma Co.) and 10 uM SB203580 (Sigma Co.) were treated as control groups and 0.01% ethanol was used as a vehicle control. After eight days lapsed, the accumulated fat within differentiated cell was stained with Oil Red 0 staining reagent and the absorbance was determined with optical density qualitatively at 490 nm. The inhibition percentage (%) was calculated by following Empirical Formula 1. The Inhibition Percentage (%)=[O.D. of test group]/[O.D. value of control group]×100 Empirical Formula 1

PPAR α = target: T1, PPAR α (Homo sapiens, UniProt Q07869); assay: PPAR α activation, tkPPRE-luciferase reporter in transfected CV-1 cells; format: cell-based; details: 24 hours
T1 construct: expressed in transfected cells; host or cells: CV-1 cells
T1 sequence (Q07869 1-468): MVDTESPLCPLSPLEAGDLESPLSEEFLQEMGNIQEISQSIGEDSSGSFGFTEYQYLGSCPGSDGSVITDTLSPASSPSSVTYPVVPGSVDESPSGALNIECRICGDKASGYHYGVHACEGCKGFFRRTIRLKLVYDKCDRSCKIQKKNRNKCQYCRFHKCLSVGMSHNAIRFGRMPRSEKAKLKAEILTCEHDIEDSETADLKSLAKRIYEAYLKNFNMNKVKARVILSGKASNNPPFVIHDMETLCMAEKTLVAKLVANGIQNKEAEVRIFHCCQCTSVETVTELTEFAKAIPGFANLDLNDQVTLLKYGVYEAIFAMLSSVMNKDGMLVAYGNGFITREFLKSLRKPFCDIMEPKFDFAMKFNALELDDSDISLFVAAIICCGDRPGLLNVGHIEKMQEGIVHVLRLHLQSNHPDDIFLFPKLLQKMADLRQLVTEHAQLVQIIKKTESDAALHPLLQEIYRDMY
T1 sequence (P19793 1-462 partner): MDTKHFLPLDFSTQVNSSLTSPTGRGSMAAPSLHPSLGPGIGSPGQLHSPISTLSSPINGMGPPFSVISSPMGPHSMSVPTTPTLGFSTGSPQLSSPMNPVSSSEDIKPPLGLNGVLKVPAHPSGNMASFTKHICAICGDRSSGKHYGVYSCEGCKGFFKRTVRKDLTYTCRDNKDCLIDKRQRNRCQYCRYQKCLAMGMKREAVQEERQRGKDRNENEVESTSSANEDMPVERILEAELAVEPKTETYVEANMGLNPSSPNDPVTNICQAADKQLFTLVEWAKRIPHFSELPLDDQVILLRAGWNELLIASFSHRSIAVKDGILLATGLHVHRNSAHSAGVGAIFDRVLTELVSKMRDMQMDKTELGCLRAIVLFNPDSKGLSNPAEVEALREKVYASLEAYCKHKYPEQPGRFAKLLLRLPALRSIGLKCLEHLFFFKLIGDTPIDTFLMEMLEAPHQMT
Experimental: To determine the regulating activity of the compound prepared by Example 1 on the PPAR α activation, following experiment was performed.
CV-1 cells were transiently cotransfected with both tkPPRE-luciferase and pCMV-PPAR α, together with pCMV-RXR and pCMV-β-Gal as a transfection control. Cells were treated with DHCA or various fractions, i.e. hexane and ethylacetate fractions obtained from this Cucurbitaceae family plant extract at the concentration of 100 ug/ml. Cells were also treated with DMSO or fenofibrate (100 uM, Sigma Co.), which is a well known agonist of PPARα. After 24 hours, cell lysates were prepared for the luciferase assay, and the activities were normalized to β-Gal activities.

COc1cc(C2Oc3c(OC)cc(/C=C/CO)cc3C2CO)ccc1O (stereo not shown) [DHCA, dehydrodiconiferyl alcohol]
anti-adipogenic activity compared with SB203580 (Preadipocytes (3T3-L1); 3T3-L1, SB203580 10 uM as control): comparable to that of SB203580
level of produced triglycerides and adipocytes differentiation (Preadipocytes (3T3-L1); 3T3-L1 induced with MDI, 8 days, Oil Red O, O.D. 490 nm, DHCA 10 to 1000 ug/ml): significantly reduced in a dose dependent manner
increase of luciferase activity as compared with control (PPAR α; 100 ug/ml, normalized to β-Gal): 10 folds
magnitude of PPAR α activation compared with fenofibrate (PPAR α; DHCA 100 ug/ml vs fenofibrate 100 uM): higher than that of fenofibrate treated cells
